Columns and labels:
Format in all cases: in vivo
[1] = tested on: green peach aphid (Myzus persicae); assay: Myzus test (Example A), infested broad bean seedlings dipped; conditions: 500 ppm active compound, 6 days
Protocol: To produce a suitable preparation of active compound, 1 part by weight of active compound is mixed with the stated amounts of solvent and emulsifier, and the concentrate is diluted with water to the desired concentration.
Broad bean seedlings (Vicia faba minor) which are infested by the green peach aphid (Myzus persicae) are dipped into a preparation of active compound of the desired concentration and placed into a plastic box.
(§1) After the desired period of time, the kill in % is determined. 100% means that all animals have been killed; 0% means that none of the animals have been killed.

[2] = tested on: Aphis gossypii; assay: Critical concentration test/root-systemic action (Example E), soil drench; conditions: 20 ppm in soil; 10 days; root-systemic; savoy cabbage
Protocol: (§2) Critical Concentration Test/Root-Systemic Action
(§3) To produce a suitable preparation of active compound, 1 part by weight of active compound is mixed with the stated amount of solvent, the stated amount of emulsifier is added and the concentrate is diluted with water to the desired concentration.
(§4) The preparation of active compound is poured onto the soil of the infected savoy cabbage plant. In this way, the active compound can be taken up from the soil by the roots of the plants and can be transported into the leaves. Here, the concentration of active compound in the preparation is virtually immaterial, only the amount by weight per volume unit of soil, which is stated in ppm ([…]), matters.
(§5) The root-systemic action of the active compound is derived from the kill rate. It is 100% if all test animals have been killed and 0% if the number of test insects alive is the same as that for the untreated control.

[3] = tested on: Myzus persicae; assay: Critical concentration test/root-systemic action (Example F), soil drench; conditions: 20 ppm in soil; 10 days; root-systemic; savoy cabbage
Protocol: as §2, §3, §4, §5

[4] = tested on: Myzus persicae; assay: Critical concentration test/root-systemic action (Example K), compound mixed with soil, broad beans; conditions: 4 ppm in soil
Protocol: as §2, §3
The preparation of active compound is mixed intimately with the soil. Here, the concentration of the active compound in the preparation is virtually immaterial, only the amount by weight of active compound per volume unit of soil, which is stated in ppm ([…]) matters. The treated soil is filled into pots of a volume of 250 ml, and pregerminated broad beans are planted into these pots. In this way, the active compound can be taken up from the soil by the plant roots and be transported into the leaves.
The root-systemic action of the active compound is derived from the kill rate. It is 100% if all test animals have been killed and 0% if the number of test insects still alive is exactly the same as in the untreated control.

[5] = tested on: Lucilia cuprina larvae; assay: Blowfly larvae test/development-inhibitory action (Example N); conditions: 48 h
Protocol: Blowfly Larvae Test/Development-Inhibitory Action
(§6) 20 mg of active compound are dissolved in 1 ml of dimethyl sulphoxide, more dilute concentrations are prepared by dilution with dist. H2O.
About 20 Lucilia cuprina larvae are introduced into a test tube which contains about 1 cm^3 of horse meat and 0.5 ml of the preparation of active compound to be tested. After 24 and 48 hours, the efficacy of the preparation of active compound is determined. The test tubes are transferred into a beaker whose bottom is covered with sand. After a further 2 days, the test tubes are removed and the pupae are counted.
The efficacy of the preparation of active compound is assessed by the number of flies that have hatched after 1.5 times the period of development of an untreated control. 100% means that no flies have hatched; 0% means that all flies have hatched normally.

[6] = tested on: larvae of the mustard beetle (Phaedon cochleariae); assay: Phaedon larvae test (Example B), dipped cabbage leaves; conditions: 100 ppm active compound; 6 days
Protocol: (§7) To produce a suitable preparation of active compound, 1 part by weight of active compound is mixed with the stated amounts of solvent and emulsifier, and the concentrate is diluted with emulsifier-containing water to the desired concentration.
(§8) Cabbage leaves (Brassica oleracea) are treated by being dipped into the preparation of active compound of the desired concentration and are populated with larvae of the mustard beetle (Phaedon cochleariae) while the leaves are still moist.
(§9) After the desired period of time, the kill in % is determined. 100% means that all beetle larvae have been killed; 0% means that none of the beetle larvae have been killed.

[7] = tested on: eggs of the diamondback moth (Plutella xylostella); assay: Plutella test (Example C), synthetic feed; conditions: 150 ppm active compound; 7 days; kill of eggs and/or larvae
Protocol: To produce a suitable preparation of active compound, 1 part by weight of active compound is mixed with the stated amount of solvent and the concentrate is diluted with methanol to the desired concentrations.
The stated amount of the preparation of active compound of the desired concentration is pipetted onto a standardized amount of synthetic feed. After the methanol has evaporated, about 200-300 eggs of the diamondback moth (Plutella xylostella) are placed onto the feed.
After the desired period of time, the kill of the eggs and/or larvae in % is determined. 100% means that all animals have been killed; 0% means that none of the animals have been killed.

[8] = tested on: cotton aphid (Aphis gossypii); assay: Aphis gossypii test (Example D), infested cotton leaves dipped; conditions: 500 ppm active compound; 6 days
Protocol: as §7
Cotton leaves (Gossypium hirsutum) which are heavily infested by the cotton aphid (Aphis gossypii) are treated by being dipped into the preparation of active compound of the desired concentration.
(§10) After the desired period of time, the kill in % is determined. 100% means that all aphids have been killed; 0% means that none of the aphids have been killed.

[9] = tested on: green peach aphid (Myzus persicae); assay: Myzus test (Example G), infested cabbage leaves dipped; conditions: 500 ppm active compound, 6 days
Protocol: as §7
Cabbage leaves (Brassica oleracea), which are heavily infested by the green peach aphid (Myzus persicae) are treated by being dipped into the preparation of active compound of the desired concentration.
as §10

[10] = tested on: larvae of the mustard beetle (Phaedon cochleariae); assay: Phaedon larvae test (Example H), dipped cabbage leaves; conditions: 500 ppm active compound; 6 days
Protocol: as §7, §8, §9

[11] = tested on: eggs, larvae and pupae of the white fly (Bemisia tabaci); assay: Bemisia test (Example I), infected cotton plants dipped; conditions: 500 ppm active compound; 6 days
Protocol: To produce a suitable preparation of active compound, 1 part by weight of active compound is mixed with the stated amounts of solvent and emulsifier, and the concentrate is diluted with water to the desired concentrations.
Cotton plants (Gossypium hirsutum) infected by eggs, larvae and pupae of the white fly (Bemisia tabaci) are dipped into a preparation of active compound of the desired concentration.
as §1

[12] = tested on: Adults of Ctenocephalides felis; assay: Test with cat fleas/oral uptake (Example L); conditions: orally, 28 h
Protocol: Test with Cat Fleas/Oral Uptake
To produce a suitable formulation, a suitable solution of active compound is prepared from 20 mg of active compound and 1 ml of DMSO. 15 μl of this formulation are added to 3 ml of citrated cattle blood and stirred.
10 unfed adult fleas (Ctenocephalides felis, strain “Georgi”) are placed into a chamber (Ø 3.2 cm) whose top and bottom are closed with gauze. A metal cylinder whose underside is covered with parafilm is placed onto the chamber. The cylinder contains the 3 ml of blood/active compound formulation which can be taken up by the fleas through the paraffin membrane. Whereas the blood is warmed to 37° C., the temperature in the area of the flea chambers is adjusted to 25° C. Controls are mixed with the same volume of DMSO, without addition of a compound. The determinations are carried out in triplicate.
After 28 h, the mortality in % (=dead fleas) is determined.
Compounds which effect at least 25% kill of the fleas within 28 h are judged to be effective.

[13] = tested on: adult Musca domestica, Reichswald strain (OP, SP, carbamate-resistant); assay: Test with flies (Musca domestica) (Example M), treated filter paper; conditions: time of reading not given
Protocol: Test with Flies (Musca domestica)
as §6
2 ml of this active compound preparation are pipetted onto filter paper discs (Ø 9.5 cm) in Petri dishes of corresponding dimensions. After the filter discs have been dried, 25 test animals are transferred into the Petri dishes, which are then covered.
After 1, 3, 5, 24 and 48 hours, the activity of the active compound preparation is determined. 100% means that all flies have been killed; 0% means that none of the flies have been killed.

[14] = tested on: caterpillars of the armyworm (Spodoptera frugiperda); assay: Spodoptera frugiperda test (Example J), dipped cabbage leaves; conditions: 500 ppm active compound; 7 days; % only printed in method b344
Protocol: Spodoptera frugiperda Test
as §7
Cabbage leaves (Brassica oleracea) are treated by being dipped into the preparation of active compound of the desired concentration and are populated with caterpillars of the armyworm (Spodoptera frugiperda) while the leaves are still moist.
After the desired period of time, the kill in % is determined. 100% means that all caterpillars have been killed; 0% means that none of the caterpillars have been killed.

Structure (SMILES)	Kill rate in % after 6 d (days) [1]	Kill rate in % after 10 d (days) [2]	Kill rate in % after 10 d (days) [3]	% kill after weeks ([4]; after 2 weeks)	% kill after weeks ([4]; after 3 weeks)	% kill after weeks ([4]; after 4 weeks)	% action/kill ([5]; 20 ppm)	% action/kill ([5]; 100 ppm)	Kill rate in % after 6 d (days) [9]	Kill rate in % after 6 d (days) [10]	Kill rate in % after 6 d (days) [11]	% action/kill ([12]; 20 ppm in cattle blood)	% action/kill ([12]; 100 ppm in cattle blood)	other results
O=[N+]([O-])/C(C(Cl)=C(Cl)Cl)=C1\NCCN1Cc1ccc(Cl)nc1 [Example I-1, 2-chloro-5-[2-(2,3,3-trichloro-1-nitroallylidene)imidazolidin-1-ylmethyl]pyridine]	100%	100%	100%	100%	100%	99%	0%	100%	–	–	–	–	–	% kill after weeks ([4]; after 5 weeks): 100%
O=[N+]([O-])/C(C(=C(Cl)Cl)N1CCOCC1)=C1\NCCN1Cc1ccc(Cl)nc1 [Example I-2, 2-chloro-5-[2-(2-morpholinyl-3,3-dichloro-1-nitro-allylidene)imidazolidin-1-ylmethyl]pyridine]	100%	100%	100%	100%	100%	99%	0%	100%	100%	100%	100%	80%	80%	Kill rate in % after 6 d (days) [6]: 100%; Kill rate in % after 7 d (days) [7]: 100%; Kill rate in % after 6 d (days) [8]: 100%; % action/kill ([12]; 0.8 ppm in cattle blood): 0%; % action/kill ([12]; 4 ppm in cattle blood): 0%; % action/kill ([13]; 20 ppm): 0%; % action/kill ([13]; 100 ppm): 50%
Cc1ccc(SC(=C(Cl)Cl)C(=C2NCCN2Cc2ccc(Cl)nc2)[N+](=O)[O-])cc1 [Example I-3, 2-chloro-5-[2-(2-(p-tolylthio)-3,3-dichloro-1-nitroallylidene)imidazolidin-1-ylmethyl]pyridine]	–	–	–	–	–	–	–	–	–	–	–	0%	50%	–
O=[N+]([O-])/C(C(=C(Cl)Cl)N1CCCC1)=C1\NCCN1Cc1ccc(Cl)nc1 [Example I-10]	–	–	–	–	–	–	–	–	–	–	100%	40%	100%	–
O=[N+]([O-])/C(C(=C(Cl)Cl)N1CCSCC1)=C1\NCCN1Cc1ccc(Cl)nc1 [Example I-11]	–	–	–	–	–	–	0%	100%	100%	100%	–	0%	70%	–
CN(C(=C(Cl)Cl)/C(=C1/NCCN1Cc1ccc(Cl)nc1)[N+](=O)[O-])C(C)(C)C [Example I-12]	–	–	–	–	–	–	0%	100%	–	–	–	30%	70%	Rate of activity after 7 d (days) [14]: 100%
